Source: patent US20150105252A1, “SUBSTITUTED PYRAZOLES AS HERBICIDES” (E I DU PONT DE NEMOURS AND COMPANY, priority 2013, published 2015)

Assays:
barnyardgrass [1] = assay: Test A preemergence; assay type: in vivo, Echinochloa crus-galli; details: 0 to 100 scale
Method in brief: (§1)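 Pre- and postemergence greenhouse test; loam+sand; cpd in non-phytotox. solvent/surfactant; post at 1–2 leaf, 2–10 cm; visual score ~10 d, 0 = none, 100 = complete control.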

crabgrass, large [2] = assay: Test A preemergence; assay type: in vivo, Digitaria sanguinalis; details: 0 to 100 scale
Method in brief: as §1

foxtail, giant [3] = assay: Test A preemergence; assay type: in vivo, Setaria faberii; details: 0 to 100 scale
Method in brief: as §1

morningglory [4] = assay: Test A preemergence; assay type: in vivo, Ipomoea spp.; details: 0 to 100 scale
Method in brief: as §1

pigweed [5] = assay: Test A preemergence; assay type: in vivo, Amaranthus retroflexus; details: 0 to 100 scale
Method in brief: as §1

velvetleaf [6] = assay: Test A preemergence; assay type: in vivo, Abutilon theophrasti; details: 0 to 100 scale
Method in brief: as §1

wheat [7] = assay: Test A preemergence; assay type: in vivo, Triticum aestivum
Method in brief: as §1

corn [8] = assay: Test A preemergence; assay type: in vivo, Zea mays; details: 0 to 100 scale
Method in brief: as §1

barnyardgrass [9] = assay: Test A postemergence; assay type: in vivo, Echinochloa crus-galli; details: Postemergence
Method in brief: as §1

crabgrass, large [10] = assay: Test A postemergence; assay type: in vivo, Digitaria sanguinalis
Method in brief: as §1

foxtail, giant [11] = assay: Test A postemergence; assay type: in vivo, Setaria faberii
Method in brief: as §1

morningglory [12] = assay: Test A postemergence; assay type: in vivo, Ipomoea spp.
Method in brief: as §1

pigweed [13] = assay: Test A postemergence; assay type: in vivo, Amaranthus retroflexus
Method in brief: as §1

velvetleaf [14] = assay: Test A postemergence; assay type: in vivo, Abutilon theophrasti
Method in brief: as §1

wheat [15] = assay: Test A postemergence; assay type: in vivo, Triticum aestivum
Method in brief: as §1

corn [16] = assay: Test A postemergence; assay type: in vivo, Zea mays
Method in brief: as §1

rice [17] = assay: Test C flooded paddy test; assay type: in vivo, Oryza sativa; details: Flood
Source text: (§2) At time of treatment, test pots were flooded to 3 cm above the soil surface, treated by application of test compounds directly to the paddy water, and then maintained at that water depth for the duration of the test. Treated plants and controls were maintained in a greenhouse for 13 to 15 days, after which time all species were compared to controls and visually evaluated. […] A dash (-) response means no test result.

sedge, umbrella [18] = assay: Test C flooded paddy test; assay type: in vivo, Cyperus difformis; details: Flood
Source text: as §2

ducksalad [19] = assay: Test C flooded paddy test; assay type: in vivo, Heteranthera limosa; details: Flood
Source text: as §2

barnyardgrass [20] = assay: Test C flooded paddy test; assay type: in vivo, Echinochloa crus-galli; details: Flood
Source text: as §2

rice [21] = assay: Test B flood; assay type: in vivo, Oryza sativa; details: 250 g ai/ha, visual rating on 0 to 100 scale (0 no effect, 100 complete control), 13 to 15 days
Procedure: (§3) Seeds selected from rice (Oryza sativa), sedge, umbrella (small-flower umbrella sedge Cyperus difformis), ducksalad (Heteranthera limosa), and barnyardgrass (Echinochloa crus-galli) were grown to the 2-leaf stage for testing. At time of treatment, test pots were flooded to 3 cm above the soil surface, treated by application of test compounds directly to the paddy water, and then maintained at that water depth for the duration of the test.
(§4) Treated plants and controls were maintained in a greenhouse for 13 to 15 days, after which time all species were compared to controls and visually evaluated. Plant response ratings, summarized in Table B, are based on a scale of 0 to 100 where 0 is no effect and 100 is complete control. A dash (-) response means no test result.

sedge, umbrella [22] = assay: Test B flood; assay type: in vivo, Cyperus difformis; details: 250 g ai/ha, visual rating on 0 to 100 scale (0 no effect, 100 complete control), 13 to 15 days
Procedure: as §3, §4

ducksalad [23] = assay: Test B flood; assay type: in vivo, Heteranthera limosa; details: 250 g ai/ha, visual rating on 0 to 100 scale (0 no effect, 100 complete control), 13 to 15 days
Procedure: as §3, §4

barnyardgrass [24] = assay: Test B flood; assay type: in vivo, Echinochloa crus-galli; details: 250 g ai/ha, visual rating on 0 to 100 scale (0 no effect, 100 complete control), 13 to 15 days
Procedure: as §3, §4

[25] = Preemergence, 1000 g ai/ha, 0 no effect, 100 complete control
[26] = Preemergence, 1000 g ai/ha, 0 to 100 scale, 0 no effect, 100 complete control
[27] = 1000 g ai/ha, visual rating after approx. 10 days, 0 to 100 scale (0 no effect, 100 complete control)
[28] = Postemergence, 1000 g ai/ha, visual rating after approx. 10 days, 0 to 100 scale (0 no effect, 100 complete control)
[29] = 31 g ai/ha, scale 0 to 100 (0 no effect, 100 complete control)
[30] = 62 g ai/ha, scale 0 to 100 (0 no effect, 100 complete control)
[31] = Preemergence, 500 g ai/ha, 0 no effect, 100 complete control
[32] = preemergence, 125 g ai/ha, visual injury, approx. 10 days
[33] = Postemergence, 500 g ai/ha, visual rating after approx. 10 days, 0 to 100 scale (0 no effect, 100 complete control)
[34] = postemergence, 125 g ai/ha, about 10 days, visual rating on 0 to 100 scale (0 no effect, 100 complete control)

CCCNC(=O)c1cc(CCC)n(Cc2cccc(OC(F)(F)F)c2)n1 [Compound 35]
60: Plant response rating, Ducksalad (ducksalad [19]; 250 g ai/ha, scale 0 to 100)
30: Barnyardgrass plant response rating (barnyardgrass [9]; [27]) | Plant response rating, Sedge, Umbrella (sedge, umbrella [18]; [30])
80: Plant response rating, Sedge, Umbrella (sedge, umbrella [18]; 250 g ai/ha, scale 0 to 100)
50: Morningglory plant response rating (morningglory [4]; [25]) | Velvetleaf plant response rating (velvetleaf [6]; [25]) | Plant response rating, Sedge, Umbrella (sedge, umbrella [18]; 125 g ai/ha, scale 0 to 100)
10: Plant response rating, Barnyardgrass (barnyardgrass [20]; 125 g ai/ha, scale 0 to 100) | Plant response rating, Barnyardgrass (barnyardgrass [20]; 250 g ai/ha, scale 0 to 100)
20: Wheat plant response rating (wheat [15]; [28]) | Corn plant response rating (corn [16]; [28]) | Plant response rating, Sedge, Umbrella (sedge, umbrella [18]; [29]) | Plant response rating, Ducksalad (ducksalad [19]; [30]) | Plant response rating, Ducksalad (ducksalad [19]; 125 g ai/ha, scale 0 to 100)
40: Foxtail, Giant plant response rating (foxtail, giant [11]; [28])
90: Pigweed plant response rating (pigweed [5]; [25]) | Pigweed plant response rating (pigweed [13]; [28])
70: Barnyardgrass plant response rating (barnyardgrass [1]; [25]) | Crabgrass, Large plant response rating (crabgrass, large [10]; [28])
100: Crabgrass, Large plant response rating (crabgrass, large [2]; [25]) | Foxtail, Giant plant response rating (foxtail, giant [3]; [25]) | Morningglory plant response rating (morningglory [12]; [28]) | Velvetleaf plant response rating (velvetleaf [14]; [28])
0: Wheat plant response rating (wheat [7]; [26]) | Corn plant response rating (corn [8]; [25]) | Plant response rating, Rice (rice [17]; [29]) | Plant response rating, Rice (rice [17]; [30]) | Plant response rating, Rice (rice [17]; 125 g ai/ha, scale 0 to 100) | Plant response rating, Rice (rice [17]; 250 g ai/ha, scale 0 to 100) | Plant response rating, Ducksalad (ducksalad [19]; [29]) | Plant response rating, Barnyardgrass (barnyardgrass [20]; [29]) | Plant response rating, Barnyardgrass (barnyardgrass [20]; [30])

CCc1cc(C(=O)NCC2CC2)nn1Cc1cccc(OC(F)(F)F)c1 [Compound 53]
40: Barnyardgrass plant response rating (barnyardgrass [1]; [25]) | Morningglory plant response rating (morningglory [4]; [25]) | Barnyardgrass plant response rating (barnyardgrass [9]; [27]) | Corn plant response rating (corn [16]; [28]) | Plant response rating, Ducksalad (ducksalad [19]; 250 g ai/ha, scale 0 to 100)
80: Pigweed plant response rating (pigweed [13]; [28]) | Velvetleaf plant response rating (velvetleaf [14]; [28]) | Plant response rating, Sedge, Umbrella (sedge, umbrella [18]; 250 g ai/ha, scale 0 to 100)
30: Velvetleaf plant response rating (velvetleaf [6]; [25]) | Wheat plant response rating (wheat [15]; [28]) | Plant response rating, Rice (rice [17]; 250 g ai/ha, scale 0 to 100)
90: Foxtail, Giant plant response rating (foxtail, giant [3]; [25]) | Morningglory plant response rating (morningglory [12]; [28])
15: Plant response rating, Barnyardgrass (barnyardgrass [20]; 250 g ai/ha, scale 0 to 100)
50: Crabgrass, Large plant response rating (crabgrass, large [10]; [28]) | Foxtail, Giant plant response rating (foxtail, giant [11]; [28])
100: Crabgrass, Large plant response rating (crabgrass, large [2]; [25]) | Pigweed plant response rating (pigweed [5]; [25])
10: Corn plant response rating (corn [8]; [25]) | Plant response rating, Rice (rice [17]; 125 g ai/ha, scale 0 to 100)
0: Wheat plant response rating (wheat [7]; [26]) | Plant response rating, Rice (rice [17]; [29]) | Plant response rating, Rice (rice [17]; [30]) | Plant response rating, Sedge, Umbrella (sedge, umbrella [18]; [29]) | Plant response rating, Sedge, Umbrella (sedge, umbrella [18]; [30]) | Plant response rating, Sedge, Umbrella (sedge, umbrella [18]; 125 g ai/ha, scale 0 to 100) | Plant response rating, Ducksalad (ducksalad [19]; [29]) | Plant response rating, Ducksalad (ducksalad [19]; [30]) | Plant response rating, Ducksalad (ducksalad [19]; 125 g ai/ha, scale 0 to 100) | Plant response rating, Barnyardgrass (barnyardgrass [20]; [29]) | Plant response rating, Barnyardgrass (barnyardgrass [20]; [30]) | Plant response rating, Barnyardgrass (barnyardgrass [20]; 125 g ai/ha, scale 0 to 100)

Cc1cc(C(=O)NCC(F)(F)F)nn1Oc1ccnc(C(F)(F)F)c1 [Compound 79]
20: Wheat plant response rating (wheat [7]; preemergence, 500 g ai/ha, visual injury after approx. 10 days, 0 to 100 scale (0 no effect, 100 complete control)) | Crabgrass, Large plant response rating (crabgrass, large [10]; [34]) | Wheat plant response rating (wheat [15]; [33])
90: Crabgrass, Large plant response rating (crabgrass, large [2]; [31]) | Foxtail, Giant plant response rating (foxtail, giant [3]; [31])
30: Pigweed plant response rating (pigweed [5]; [32]) | Barnyardgrass plant response rating (barnyardgrass [9]; 500 g ai/ha, visual rating after approx. 10 days, 0 to 100 scale (0 no effect, 100 complete control)) | Foxtail, Giant plant response rating (foxtail, giant [11]; [33]) | Morningglory plant response rating (morningglory [12]; [34])
70: Barnyardgrass plant response rating (barnyardgrass [1]; [31]) | Morningglory plant response rating (morningglory [12]; [33])
60: Crabgrass, Large plant response rating (crabgrass, large [2]; [32]) | Velvetleaf plant response rating (velvetleaf [6]; [31]) | Crabgrass, Large plant response rating (crabgrass, large [10]; [33]) | Pigweed plant response rating (pigweed [13]; [33])
50: Morningglory plant response rating (morningglory [4]; [31]) | Velvetleaf plant response rating (velvetleaf [14]; [33])
40: Pigweed plant response rating (pigweed [13]; [34]) | Velvetleaf plant response rating (velvetleaf [14]; [34])
0: Morningglory plant response rating (morningglory [4]; [32]) | Velvetleaf plant response rating (velvetleaf [6]; [32]) | Wheat plant response rating (wheat [7]; preemergence, 125 g ai/ha, visual injury, 0 to 100 scale, approx. 10 days) | Corn plant response rating (corn [8]; [31]) | Corn plant response rating (corn [8]; [32]) | Barnyardgrass plant response rating (barnyardgrass [9]; 125 g ai/ha, 0 to 100 scale, 0 no effect, 100 complete control) | Wheat plant response rating (wheat [15]; [34]) | Plant response rating, Rice (rice [21]) | Plant response rating, Sedge, Umbrella (sedge, umbrella [22]) | Plant response rating, Ducksalad (ducksalad [23]) | Plant response rating, Barnyardgrass (barnyardgrass [24])
100: Pigweed plant response rating (pigweed [5]; [31])
10: Barnyardgrass plant response rating (barnyardgrass [1]; [32]) | Foxtail, Giant plant response rating (foxtail, giant [3]; [32]) | Foxtail, Giant plant response rating (foxtail, giant [11]; [34]) | Corn plant response rating (corn [16]; [33]) | Corn plant response rating (corn [16]; [34])
